This test deals with mexY (EC) strain. Kind of test: Efflux ability inhibition effect on drug efflux pump MexY (Test Examples 1 and 3): proliferation (OD595) of mexY (EC) strain with EM or LVFX at 1/4 MIC, EC75. As to conditions: Table 51, Test Example 1, 16 to 20 hours culture, OD595; for EC75, mexY (EC) strain, EM: combined with EM at 1/4 MIC; for EC75, mexY (EC) strain, LVFX: combined with LVFX at 1/4 MIC. The test is classed as cell-based, Escherichia coli. As to the method: The efflux ability inhibition effect of the test compound on the drug efflux pump was evaluated using the bacterial proliferative ability in the presence of EM or LVFX as an index.
EM is a macrolide antibacterial agent and is a drug that is discharged outside the bacteria by MexB and MexY LVFX is a quinolone antibacterial agent and is a drug that is discharged outside the bacteria by MexB and MexY In a case where the test compound has an efflux ability inhibitory ability against the drug efflux pump, the proliferation of bacteria is suppressed by the combined use of EM or LVFX and the test compound, as compared with the case where EM or LVFX is used alone.
A mutant strain (hereinafter, referred to as an “mexB (EC) strain”) obtained by transferring the genes of the main multidrug efflux system MexAB-OprM of Pseudomonas aeruginosa described in Nature, 2013, Vol. 500, pp. 102 to 106 as a plasmid into Escherichia coli strains in which the acrB and tolC genes of the multidrug efflux system AcrAB-TolC were deleted as described in Journal of Infection and Chemotherapy 2008, Vol. 14, pp. 23 to 29, and a gene transfer strain (hereinafter, referred to as an “mexY (EC) strain”) of another main multidrug efflux system MexXY-OprM of Pseudomonas aeruginosa were used for the evaluation of test compounds.
In the mexB (EC) strain, an expression level of MexB of the drug efflux pump is accelerated, and in the mexY (EC) strain, an expression level of MexY of the drug efflux pump is accelerated.
For culturing each Escherichia coli strain, a 96-well plate (amount of culture medium per well: 100 μL) was used and Luria-Bertani broth (LB) culture medium was used. The inoculation amount of the bacteria was set to 10^4 to 5 CFU/well.
The mexB (EC) strain and the mexY (EC) strain were cultured for 16 to 20 hours in a culture medium to which EM or LVFX and test compounds at various concentrations (0 to 800 μM) were added, and the proliferation of the bacterial strains was evaluated by optical turbidity at 595 nm (OD595). The concentration of the antibacterial agents (EM and LVFX) in the culture medium were each set to ¼ of the minimum inhibitory concentration (MIC) (hereinafter, referred to as ¼ MIC) of the single antibacterial agent.
The proliferation of bacteria in a case where the antibacterial agent was added at the concentration of ¼ MIC in a case where the test compound was not added was measured, and compared with the proliferation of bacteria in a case where the test compound was contained, and the lowest concentration of the test compound at which the proliferation was inhibited by 75% or more was defined as the drug efflux pump inhibitory ability of the test compound as 75% inhibitory effect concentration (EC75).
The drug efflux pump inhibitory ability of each test compound in a case of being used in combination with the antibacterial agent against the mexB (EC) strain and the mexY (EC) strain was evaluated as follows according to the value of EC75. • S: EC75≤[…] • A: 12.5 μM<EC75≤25 μM • B: 25 μM<EC75≤100 μM • C: […]
In the same manner as in Test Example 1, the efflux ability inhibition effect of the test compound on the drug efflux pump was evaluated using the bacterial proliferation ability in the presence of EM or LVFX as an index.

Consider 10 compounds from US20250326744A1, “PIPERAZINE DERIVATIVE OR SALT THEREOF, AND PHARMACEUTICAL COMPOSITION” (priority 2022, published 2025).

Counter-ions that a name gives are not always drawn.

For the compound `COc1ccccc1CN1CCN(C(=O)C(F)(F)C2CCN(CCc3ccccc3)CC2)CC1` [Example 299, hydrochloride of 2,2-difluoro-1-(4-(2-methoxybenzyl)piperazin-1-yl)-2-(1-phenethylpiperidin-4-yl)ethan-1-one], the “EC75, mexY (EC) strain, EM” value is “B (25 μM<EC75≤100 μM)” and the “EC75, mexY (EC) strain, LVFX” value was “B (25 μM<EC75≤100 μM)”.
With `CCOc1cccc(F)c1CN1CCN(C(=O)[C@H](N)C2CCN(CCC3CCCCC3)CC2)CC1` [Example 47, Hydrobromide of (R)-2-amino-2-(1-(2-cyclohexylethyl)piperidin-4-yl)-1-(4-(2-ethoxy-6-fluorobenzyl)piperazin-1-yl)ethan-1-one], the “EC75, mexY (EC) strain, EM” value was “A (12.5 μM<EC75≤25 μM)” and the “EC75, mexY (EC) strain, LVFX” value is on record as “A (12.5 μM<EC75≤25 μM)”.
Regarding `CCOc1cccc(F)c1CN1CCN(C(=O)[C@H](N)C2CCN(CCC34CC5CC(CC(C5)C3)C4)CC2)CC1` [Example 125], the “EC75, mexY (EC) strain, EM” value was “A (12.5 μM<EC75≤25 μM)”.
In the case of `CCOc1cccc(F)c1CN1CCN(C(=O)[C@H](N)C2CCN(CC(F)c3ccccc3)CC2)CC1` (stereo partly drawn) [Example 59, Hydrobromide of (2R)-2-amino-1-(4-(2-ethoxy-6-fluorobenzyl)piperazin-1-yl)-2-(1-(2-fluoro-2-phenylethyl)piperidin-4-yl) ethan-1-one], the “EC75, mexY (EC) strain, EM” value is listed as “B (25 μM<EC75≤100 μM)” and the “EC75, mexY (EC) strain, LVFX” value is on record as “B (25 μM<EC75≤100 μM)”.
On to `CCOc1cccc(F)c1CN1CCN(C(=O)[C@H](N)C2CCN(CCC3(C)CCCCC3)CC2)CC1` [Example 126, Hydrochloride of (R)-2-amino-1-(4-(2-ethoxy-6-fluorobenzyl)piperazin-1-yl)-2-(1-(2-(1-methylcyclohexyl)ethyl)piperidin-4-yl)ethan-1-one], for which the “EC75, mexY (EC) strain, EM” value is recorded as “A (12.5 μM<EC75≤25 μM)” and the “EC75, mexY (EC) strain, LVFX” value is listed as “A (12.5 μM<EC75≤25 μM)”.
In the case of `CCOc1cccc(F)c1CN1CCN(C(=O)[C@H](N)C2CCN(CCn3c(=O)ccc4ncc(F)cc43)CC2)CC1` [Example 14, Hydrobromide of (R)-1-(2-(4-(1-amino-2-(4-(2-ethoxy-6-fluorobenzyl)piperazin-1-yl)-2-oxoethyl)piperidin-1-yl)ethyl)-7-fluoro-1,5-naphthyridin-2(1H)-one], the “EC75, mexY (EC) strain, EM” value is on record as “B (25 μM<EC75≤100 μM)” and the “EC75, mexY (EC) strain, LVFX” value is listed as “B (25 μM<EC75≤100 μM)”.
Regarding `COc1ccccc1CN1CCN(C(=O)[C@H](NCc2ccccc2)C2CCN(CCc3cccc(Cl)c3)CC2)CC1` [Example 142, hydrochloride of (R)-2-(benzylamino)-2-(1-(3-chlorophenethyl)piperidin-4-yl)-1-(4-(2-methoxybenzyl)piperazin-1-yl)ethan-1-one], the “EC75, mexY (EC) strain, EM” value is “B (25 μM<EC75≤100 μM)” and the “EC75, mexY (EC) strain, LVFX” value was “B (25 μM<EC75≤100 μM)”.
Turning to `CCOc1cccc(F)c1CN1CCN(C(=O)[C@H](N)C2CCN(CCC3CCCC3)CC2)CC1` [Example 41, Hydrobromide of (R)-2-amino-2-(1-(2-cyclopentylethyl)piperidin-4-yl)-1-(4-(2-ethoxy-6-fluorobenzyl)piperazin-1-yl) ethan-1-one], the “EC75, mexY (EC) strain, EM” value is given as “A (12.5 μM<EC75≤25 μM)” and the “EC75, mexY (EC) strain, LVFX” value was “A (12.5 μM<EC75≤25 μM)”.
Consider `COc1ccccc1CN1CCN(C(=O)CN2CCC(CCc3ccccc3)(NC(N)=O)CC2)CC1` [Example 416, hydrochloride of 1-(1-(2-(4-(2-methoxybenzyl)piperazin-1-yl)-2-oxoethyl)-4-phenethylpiperidin-4-yl)urea], for which the “EC75, mexY (EC) strain, EM” value is “B (25 μM<EC75≤100 μM)” and the “EC75, mexY (EC) strain, LVFX” value is on record as “B (25 μM<EC75≤100 μM)”.
Turning to `CCOc1cccc(F)c1CN1CCN(C(=O)[C@H](N)C2CCN(CCc3cc(Cl)ccc3-c3ccccc3C#N)CC2)CC1` [Example 64, Hydrobromide of (R)-2′-(2-(4-(1-amino-2-(4-(2-ethoxy-6-fluorobenzyl)piperazin-1-yl)-2-oxoethyl)piperidin-1-yl)ethyl)-4′-chloro-[1,1′-biphenyl]-2-carbonitrile], the “EC75, mexY (EC) strain, EM” value is recorded as “A (12.5 μM<EC75≤25 μM)”.
